# Experiments:
# Test in all cases: relative viability (nuclei count vs DMSO), 5 days (fraction); higher = more cells survive
# [1] = compound: N#CC1(c2ccc(NC(=O)c3cccnc3NCc3ccncc3)cc2)CCCC1 [Apatinib] + NC(=O)Nc1cc(-c2cccc(F)c2)sc1C(=O)N[C@H]1CCCNC1 [AZD7762] (partner 0.2 µM)
# In short: (§1)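 Each reported value is a median over duplicate plates. It expresses relative viability: treated-well nuclei count divided by vehicle-well nuclei count. Lung cancer cell lines in 1536-well plates were dosed by pin tool a day after seeding, alone with one drug or with a fixed anchor-drug dose plus five library-drug doses (not always all listed) in √10 steps, and nuclei were counted after 5 days.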
# [2] = compound: N#CC1(c2ccc(NC(=O)c3cccnc3NCc3ccncc3)cc2)CCCC1 [Apatinib] + CC(C)C[C@H](NC(=O)[C@H](Cc1ccccc1)NC(=O)c1cnccn1)B(O)O [Bortezomib] (partner 0.002 µM)
# In short: as §1
# [3] = compound: CN(C)C(=N)NC(=N)N [Metformin] + Cc1nc(NC(=O)N2CCC[C@H]2C(N)=O)sc1-c1ccnc(C(C)(C)C(F)(F)F)c1 [Alpelisib] (partner 2 µM)
# In short: as §1
# [4] = compound: N#CC1(c2ccc(NC(=O)c3cccnc3NCc3ccncc3)cc2)CCCC1 [Apatinib] + CC(=O)c1c(C)c2cnc(Nc3ccc(N4CCNCC4)cn3)nc2n(C2CCCC2)c1=O [Palbociclib] (partner 0.5 µM)
# In short: as §1
Cell Line,relative viability ([1]; first compound 0.08 µM),relative viability ([1]; first compound 0.253 µM),relative viability ([1]; first compound 0.8 µM),relative viability ([1]; first compound 2.53 µM),relative viability ([1]; first compound 8 µM),relative viability ([2]; first compound 0.08 µM),relative viability ([2]; first compound 0.253 µM),relative viability ([2]; first compound 0.8 µM),relative viability ([2]; first compound 2.53 µM),relative viability ([2]; first compound 8 µM),relative viability ([3]; first compound 10 µM),relative viability ([3]; first compound 31.62 µM),relative viability ([3]; first compound 100 µM),relative viability ([3]; first compound 316.23 µM),relative viability ([3]; first compound 1000 µM),relative viability ([4]; first compound 0.08 µM),relative viability ([4]; first compound 0.253 µM),relative viability ([4]; first compound 0.8 µM),relative viability ([4]; first compound 2.53 µM),relative viability ([4]; first compound 8 µM)
HCC-15,1.13,1.23,1.12,1.15,1.05,1.09,1.03,0.972,0.88,0.992,0.921,1.07,1.03,0.659,0.919,0.792,0.734,0.677,0.705,0.586
NCI-H441,1,1.16,1.05,1.08,1.06,0.615,0.481,0.592,0.322,0.217,0.566,,0.765,,0.572,0.234,0.217,0.219,0.211,0.212
NCI-H1993,0.869,0.7,0.648,0.576,0.638,1.2,1.11,0.781,1,1.07,0.634,0.67,0.643,0.62,0.705,0.783,0.736,0.597,0.528,0.616
NCI-H1915,0.733,0.685,0.648,0.567,0.505,0.953,0.984,0.956,0.812,0.924,,1.14,1.09,1.04,1.11,0.549,0.524,0.555,0.5,0.475
ABC-1,,0.687,0.882,0.767,0.727,,0.333,0.311,0.335,0.316,,1.08,0.999,0.745,0.349,,1.02,0.663,0.531,0.583
NCI-H2087,1.25,1.25,1.32,1.05,1.05,0.866,0.82,0.779,0.737,0.671,1.09,0.858,1.05,0.982,0.963,0.231,0.256,0.248,0.266,0.178
NCI-H1755,0.442,0.449,0.366,0.375,0.335,1.02,0.959,0.94,0.945,0.925,0.767,0.826,0.796,0.724,0.798,0.462,0.464,0.434,0.404,0.422
HCC-366,0.283,0.457,0.135,0.128,0.0774,1.16,1.1,0.948,0.926,1.09,0.43,0.545,0.472,0.452,0.535,0.484,0.378,0.373,0.334,0.306
NCI-H2170,0.871,0.901,0.719,0.721,0.706,,,,,,0.748,0.792,0.819,0.806,0.805,0.387,0.382,0.362,0.379,0.298
NCI-H1792,0.881,0.68,0.528,0.508,0.211,0.917,1.05,0.957,0.906,0.968,,0.798,0.979,0.691,0.869,0.662,0.651,0.577,0.633,0.622
SW 1573,,,,,,1.15,1.04,0.982,1.05,0.944,0.853,0.82,0.795,0.8,0.797,0.4,0.518,0.433,0.379,0.252
HCC-827,0.166,0.213,0.165,0.141,0.158,0.977,0.907,1.07,1.05,1.09,,0.822,0.896,0.837,0.782,0.444,0.444,0.402,0.391,0.357
NCI-H358,0.548,0.573,0.475,0.45,0.343,,,,,,1.1,0.911,1.07,0.915,1.25,0.137,0.133,0.123,0.124,0.123
Calu-6,,,,,,0.969,1.12,0.96,0.789,0.814,0.889,0.84,0.836,0.73,0.879,,,,,
LOU-NH91,0.749,0.724,0.75,0.677,0.701,0.466,0.492,0.543,0.443,0.476,0.762,0.709,0.806,0.634,0.642,0.549,0.508,0.526,0.58,0.531
CAL-12T,0.618,0.53,0.603,0.51,0.468,1.11,0.908,1.06,0.819,1.09,,1.21,1.08,0.812,0.907,0.448,0.56,0.465,0.485,0.367
IA-LM,,,,,,0.952,0.976,0.839,0.536,0.183,,1.11,0.906,0.882,0.88,,,,,
NCI-H1703,0.147,0.127,0.123,0.0918,0.127,0.325,0.297,0.257,0.175,0.154,0.491,0.728,0.474,0.512,0.368,,,,,
SW 900,0.656,0.587,0.563,0.374,0.401,,,,,,,,,,,0.616,0.548,0.558,0.478,0.435
NCI-H1793,0.669,0.41,0.257,0.209,0.116,,,,,,1.17,1.03,0.953,0.761,0.919,0.35,0.284,0.349,0.264,0.27
NCI-H1563,,,,,,0.762,0.963,0.811,0.737,0.762,1.06,0.914,1.06,0.827,0.72,,,,,
EBC-1,,,,,,0.577,0.782,0.605,0.395,0.359,0.866,0.989,0.925,0.941,0.947,,,,,

Cell Line,relative viability ([1]; first compound 0.08 µM),relative viability ([1]; first compound 0.253 µM),relative viability ([1]; first compound 0.8 µM),relative viability ([1]; first compound 2.53 µM),relative viability ([1]; first compound 8 µM),relative viability ([2]; first compound 0.08 µM),relative viability ([2]; first compound 0.253 µM),relative viability ([2]; first compound 0.8 µM),relative viability ([2]; first compound 2.53 µM),relative viability ([2]; first compound 8 µM),relative viability ([3]; first compound 10 µM),relative viability ([3]; first compound 31.62 µM),relative viability ([3]; first compound 100 µM),relative viability ([3]; first compound 316.23 µM),relative viability ([3]; first compound 1000 µM),relative viability ([4]; first compound 0.08 µM),relative viability ([4]; first compound 0.253 µM),relative viability ([4]; first compound 0.8 µM),relative viability ([4]; first compound 2.53 µM),relative viability ([4]; first compound 8 µM)
NCI-H596,1.09,1.04,0.863,0.944,0.901,1.2,1,1.17,0.929,1.04,0.627,0.652,0.655,0.547,0.577,,,,,
NCI-H2228,,,,,,1.27,1.17,1.17,1.02,0.93,0.917,0.85,,0.542,0.898,0.668,0.788,0.776,0.708,0.667
NCI-H661,,,,,,0.935,0.855,0.685,0.764,0.584,0.745,0.404,0.711,0.757,0.774,0.388,0.405,0.417,0.417,0.356
SK-MES-1,,,,,,,,,,,0.814,0.802,0.732,0.822,0.909,0.335,0.323,0.282,0.292,0.278
ChaGo-K-1,0.913,0.853,0.776,0.711,0.617,,1.19,0.847,0.857,1.03,,,,,,0.993,1.04,0.908,0.9,0.772
SK-LU-1,,,,,,0.932,1.26,0.968,1.12,1,0.916,0.934,0.829,0.948,1.07,0.372,0.402,0.433,0.381,0.339
COR-L23,,,,,,1.07,1.03,0.971,0.793,0.898,0.633,0.721,0.72,0.564,0.7,0.321,0.341,0.278,0.273,0.271
NCI-H1648,0.937,0.667,0.612,0.567,0.601,,,,,,,,,,,0.273,0.218,0.328,0.273,0.274
COR-L 105,,,,,,1.12,0.897,0.901,0.605,0.658,1.14,1.33,1.07,0.963,0.802,0.428,0.397,0.365,0.365,0.42
NCI-H520,,,,,,0.83,0.492,0.451,0.585,0.447,0.764,0.855,0.948,0.665,0.86,0.227,0.238,0.25,0.197,0.214
NCI-H1395,0.438,0.425,0.407,0.361,0.373,,,,,,0.835,1.02,1.1,0.424,0.342,0.632,0.687,0.644,0.585,0.602
LK-2,0.262,0.468,0.302,0.155,0.248,,,,,,1.56,1.53,1.63,1.36,1.32,0.762,0.481,0.758,0.484,0.356
NCI-H2023,,,,,,1.02,1.09,1.02,0.858,0.856,,0.558,0.627,,0.506,0.381,0.402,0.354,0.376,0.307
NCI-H1944,0.498,0.564,0.477,0.316,0.285,,,,,,0.936,1.01,1.06,0.886,0.973,0.362,0.327,0.272,0.325,0.255
A549,,,,,,,,,,,0.766,0.879,0.739,0.672,0.611,,,,,
NCI-H2342,0.454,0.464,0.536,0.385,0.353,,,,,,,,,,,0.497,0.524,0.49,0.498,0.572
NCI-H2009,,,,,,1.09,0.955,0.954,0.714,0.574,1.25,1.16,1.13,1.17,1.1,0.423,0.206,0.227,0.203,0.167
NCI-H1299,,,,,,1.06,1.02,0.987,1.03,0.908,0.991,0.998,1.05,0.994,0.933,,,,,
UMC-11,,,,,,1.01,0.728,0.722,0.623,0.67,1.06,0.992,1.03,0.988,0.971,0.322,0.326,0.278,0.31,0.323
NCI-H1650,,,,,,0.19,0.219,0.198,0.184,0.188,,,,,,0.262,0.352,0.323,0.299,0.303
NCI-H522,0.884,1,0.867,0.623,0.794,,,,,,,,,,,1.03,1.18,1.06,0.928,0.903
